Test results published in US20260262643A1, “HERBICIDAL BENZOXAZINES” (FMC CORPORATION, priority 2022, published 2026).

What was measured:
[1] = system: blackgrass; assay: Test A preemergence; type: in vivo, Alopecurus myosuroides
Method in brief: (§1)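 Seeds in loam–sand blend received a directed preemergence soil spray of compound in non-phytotoxic solvent with surfactant; postemergence plants (2–10 cm, one- to two-leaf stage) were sprayed with the same formulation. After 10 days in greenhouse, injury was rated visually versus untreated controls, 0 (no effect) to 100 (complete control).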

[2] = system: foxtail, giant; assay: Test A preemergence; type: in vivo, Setaria faberi
Method in brief: as §1

[3] = system: oat, wild; assay: Test A postemergence; type: in vivo, Avena fatua; conditions: postemergence, 10 days
Method in brief: as §1

[4] = system: pigweed, palmer; assay: Test A preemergence; type: in vivo, Amaranthus palmeri
Method in brief: as §1

[5] = system: corn; assay: Test A preemergence; type: in vivo, Zea mays
Method in brief: as §1

[6] = system: barnyardgrass; assay: Test B flooded paddy test; type: in vivo, Echinochloa crus-galli; conditions: 250 g ai/ha, Flood, 13 days, 0 to 100 scale (0 no effect, 100 complete control)
Method in brief: (§2)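 Percent weed or crop control, judged by eye on a 0–100 scale 13 days post-treatment, reflects compound added to a 3 cm flood maintained over 2-leaf plants in the greenhouse. Missing entries are marked with a dash.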

[7] = system: horseweed; assay: Test A postemergence; type: in vivo, Erigeron canadensis; conditions: postemergence, 10 days
Method in brief: as §1

[8] = system: oat, wild; assay: Test A preemergence; type: in vivo, Avena fatua
Method in brief: as §1

[9] = system: rice; assay: Test B flooded paddy test; type: in vivo, Oryza sativa; conditions: 250 g ai/ha, Flood, 13 days, 0 to 100 scale (0 no effect, 100 complete control)
Method in brief: as §2

[10] = system: ducksalad; assay: Test B flooded paddy test; type: in vivo, Heteranthera limosa; conditions: 250 g ai/ha, Flood, 13 days, 0 to 100 scale (0 no effect, 100 complete control)
Method in brief: as §2

[11] = system: ragweed; assay: Test A postemergence; type: in vivo, Ambrosia artemisiifolia; conditions: postemergence, 10 days
Method in brief: as §1

[12] = system: kochia; assay: Test A preemergence; type: in vivo, Bassia scoparia
Method in brief: as §1

[13] = system: wheat; assay: Test A postemergence; type: in vivo, Triticum aestivum; conditions: postemergence, 10 days
Method in brief: as §1

[14] = system: goosegrass; assay: Test A postemergence; type: in vivo, Eleusine indica; conditions: postemergence, 10 days
Method in brief: as §1

[15] = system: ryegrass, Italian; assay: Test A preemergence; type: in vivo, Lolium multiflorum
Method in brief: as §1

[16] = system: kochia; assay: Test A postemergence; type: in vivo, Bassia scoparia; conditions: postemergence, 10 days
Method in brief: as §1

[17] = system: galium; assay: Test A postemergence; type: in vivo, Galium aparine; conditions: postemergence, 10 days
Method in brief: as §1

[18] = system: ryegrass, Italian; assay: Test A postemergence; type: in vivo, Lolium multiflorum; conditions: postemergence, 10 days
Method in brief: as §1

[19] = system: goosegrass; assay: Test A preemergence; type: in vivo, Eleusine indica
Method in brief: as §1

[20] = system: foxtail, giant; assay: Test A postemergence; type: in vivo, Setaria faberi; conditions: postemergence, 10 days
Method in brief: as §1

[21] = system: ragweed; assay: Test A preemergence; type: in vivo, Ambrosia artemisiifolia
Method in brief: as §1

[22] = system: sedge, umbrella; assay: Test B flooded paddy test; type: in vivo, Cyperus difformis; conditions: 250 g ai/ha, Flood, 13 days, 0 to 100 scale (0 no effect, 100 complete control)
Method in brief: as §2

[23] = system: corn; assay: Test A postemergence; type: in vivo, Zea mays; conditions: postemergence, 10 days
Method in brief: as §1

[24] = system: blackgrass; assay: Test A postemergence; type: in vivo, Alopecurus myosuroides; conditions: postemergence, 10 days
Method in brief: as §1

[25] = system: soybean; assay: Test A preemergence; type: in vivo, Glycine max
Method in brief: as §1

[26] = system: wheat; assay: Test A preemergence; type: in vivo, Triticum aestivum
Method in brief: as §1

[27] = system: soybean; assay: Test A postemergence; type: in vivo, Glycine max; conditions: postemergence, 10 days
Method in brief: as §1

[28] = system: pigweed, palmer; assay: Test A postemergence; type: in vivo, Amaranthus palmeri; conditions: postemergence, 10 days
Method in brief: as §1

[29] = 125 g ai/ha, visual injury after 10 days, 0 to 100 scale, 0 is no effect, 100 is complete control
[30] = 500 g ai/ha, 0 to 100 scale (0 no effect, 100 complete control), 10 days
[31] = 125 g ai/ha, 0 to 100 scale, 0 no effect, 100 complete control
[32] = 500 g ai/ha, visual injury, 0 to 100 scale (0 no effect, 100 complete control)

With `CC(C)c1ncn(-c2ccc(O)c(C(=O)N3C[C@H](C)Oc4c(Cl)cccc43)c2)n1` [Compound 105] the “Plant response rating, Blackgrass” value [1, 29] was 10, the “Plant response rating, Blackgrass” value [1, 30] was 20 and the “Plant response rating, Foxtail, Giant” value [2, 29] was 70. The “Plant response rating, Foxtail, Giant” value [2, 30] was 100, the “Oat, Wild plant response rating” value [3, 31] was 70 and the “Plant response rating, Oat, Wild” value [3, 32] was 70. For the same compound, the “Plant response rating, Pigweed, Palmer” value [4, 29] was 30, the “Plant response rating, Pigweed, Palmer” value [4, 30] was 90 and the “Plant response rating, Corn” value [5, 29] was 0. The “Plant response rating, Corn” value [5, 30] was 0, the “Plant response rating, Barnyardgrass” value [6] was 0 and the “Horseweed plant response rating” value [7, 31] was 0. For the same compound, the “Plant response rating, Horseweed” value [7, 32] was 0, the “Plant response rating, Oat, Wild” value [8, 29] was 70 and the “Plant response rating, Oat, Wild” value [8, 30] was 70. For the same compound, the “Plant response rating, Rice” value [9] was 0, the “Plant response rating, Ducksalad” value [10] was 0 and the “Ragweed plant response rating” value [11, 31] was 0. For the same compound, the “Plant response rating, Ragweed” value [11, 32] was 0, the “Plant response rating, Kochia” value [12, 29] was 50 and the “Plant response rating, Kochia” value [12, 30] was 90. The “Wheat plant response rating” value [13, 31] was 0, the “Plant response rating, Wheat” value [13, 32] was 10 and the “Goosegrass plant response rating” value [14, 31] was 0. The “Plant response rating, Goosegrass” value [14, 32] was 50, the “Plant response rating, Ryegrass, Italian” value [15, 29] was 40 and the “Plant response rating, Ryegrass, Italian” value [15, 30] was 80. The “Kochia plant response rating” value [16, 31] was 90, the “Plant response rating, Kochia” value [16, 32] was 90 and the “Galium plant response rating” value [17, 31] was 60. The “Plant response rating, Galium” value [17, 32] was 70, the “Ryegrass, Italian plant response rating” value [18, 31] was 0 and the “Plant response rating, Ryegrass, Italian” value [18, 32] was 20. The “Plant response rating, Goosegrass” value [19, 29] was 60, the “Plant response rating, Goosegrass” value [19, 30] was 100 and the “Foxtail, Giant plant response rating” value [20, 31] was 20. For the same compound, the “Plant response rating, Foxtail, Giant” value [20, 32] was 80, the “Plant response rating, Ragweed” value [21, 29] was 0 and the “Plant response rating, Ragweed” value [21, 30] was 0. For the same compound, the “Plant response rating, Sedge, Umbrella” value [22] was 0, the “Corn plant response rating” value [23, 31] was 20 and the “Plant response rating, Corn” value [23, 32] was 50. The “Blackgrass plant response rating” value [24, 31] was 30, the “Plant response rating, Blackgrass” value [24, 32] was 30 and the “Plant response rating, Soybean” value [25, 29] was 0. For the same compound, the “Plant response rating, Soybean” value [25, 30] was 0, the “Plant response rating, Wheat” value [26, 29] was 0 and the “Plant response rating, Wheat” value [26, 30] was 10. For the same compound, the “Soybean plant response rating” value [27, 31] was 70, the “Plant response rating, Soybean” value [27, 32] was 100 and the “Pigweed, Palmer plant response rating” value [28, 31] was 40. For the same compound, the “Plant response rating, Pigweed, Palmer” value [28, 32] was 60.
